From the supplement of paper PMC10307832

Key:
Assay in all cases: relative viability (nuclei count vs DMSO), 5 days (fraction); higher = more cells survive
[1] = compound: COC1=C(C=C(C=C1)C2=CC3=NC=CN3C(=N2)NC4=C(C=CC=N4)C(=O)N)OC [BAY61-3606] + CC1(C)CCC(c2ccc(Cl)cc2)=C(CN2CCN(c3ccc(C(=O)NS(=O)(=O)c4ccc(N[C@H](CCN5CCOCC5)CSc5ccccc5)c(S(=O)(=O)C(F)(F)F)c4)cc3)CC2)C1 [Navitoclax] (partner 0.5 µM)
Summary of the method: (§1)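 Five library-drug doses in √10 steps were combined with a fixed anchor-drug dose, or a single drug was given alone, by pin tool to lung cancer cell lines in 1536-well plates the day after seeding. Nuclei were stained and counted after 5 days. Relative viability is the nuclei count in treated wells over that in vehicle wells, taken as the median of duplicate plates.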

[2] = compound: COC1=C(C=C(C=C1)C2=CC3=NC=CN3C(=N2)NC4=C(C=CC=N4)C(=O)N)OC [BAY61-3606] + CS(=O)(=O)CCNCc1ccc(-c2ccc3ncnc(Nc4ccc(OCc5cccc(F)c5)c(Cl)c4)c3c2)o1 [Lapatinib] (partner 2 µM)
Summary of the method: as §1

[3] = compound: COc1cccc2c1C(=O)c1c(O)c3c(c(O)c1C2=O)C[C@@](O)(C(=O)CO)C[C@@H]3O[C@H]1C[C@H](N)[C@H](O)[C@H](C)O1 [Doxorubicin] + CCNC(=O)c1noc(-c2cc(C(C)C)c(O)cc2O)c1-c1ccc(CN2CCOCC2)cc1 [Luminespib] (partner 0.01 µM)
Summary of the method: as §1

[4] = compound: COc1cccc2c1C(=O)c1c(O)c3c(c(O)c1C2=O)C[C@@](O)(C(=O)CO)C[C@@H]3O[C@H]1C[C@H](N)[C@H](O)[C@H](C)O1 [Doxorubicin] + Cc1nc(Nc2ncc(C(=O)Nc3c(C)cccc3Cl)s2)cc(N2CCN(CCO)CC2)n1 [Dasatinib] (partner 0.075 µM)
Summary of the method: as §1

Cell Line	relative viability ([1]; first compound 0.02 µM)	relative viability ([1]; first compound 0.06325 µM)	relative viability ([1]; first compound 0.2 µM)	relative viability ([1]; first compound 0.6325 µM)	relative viability ([1]; first compound 2 µM)	relative viability ([2]; first compound 0.02 µM)	relative viability ([2]; first compound 0.06325 µM)	relative viability ([2]; first compound 0.2 µM)	relative viability ([2]; first compound 0.6325 µM)	relative viability ([2]; first compound 2 µM)	relative viability ([3]; first compound 0.001 µM)	relative viability ([3]; first compound 0.003162 µM)	relative viability ([3]; first compound 0.01 µM)	relative viability ([3]; first compound 0.03162 µM)	relative viability ([3]; first compound 0.1 µM)	relative viability ([4]; first compound 0.001 µM)	relative viability ([4]; first compound 0.003162 µM)	relative viability ([4]; first compound 0.01 µM)	relative viability ([4]; first compound 0.03162 µM)	relative viability ([4]; first compound 0.1 µM)
NCI-H1993	0.831	0.785	0.707	0.819	0.739	0.733	0.846	0.808	0.776	0.746	1.8	0.859	0.8	0.713	0.727	0.714	0.6	0.512	0.479	0.427
CAL-12T	1.23	1.42	1.2	1.27	0.67	0.805	0.596	0.613	0.768	0.637	0.523	0.394	0.555	0.289	0.239	0.302	0.461	0.346	0.195	0.118
NCI-H1623											0.394	0.478	0.508	0.374	0.487	0.502	0.564	0.55	0.548	0.491
HCC-78	0.915	0.652	0.905	0.802	0.801	0.949	0.682	0.82	0.702	0.959						0.412	0.465	0.366	0.349	0.363
EKVX	1.04	1.04	0.884	0.959	0.938	0.365	0.184	0.214	0.198	0.193	0.784	1.02	0.828	0.847	0.834	0.581	0.504	0.601	0.539	0.501
NCI-H1666	1.17		1.06	0.965	1.02	0.668		0.523	0.649	0.445	1.01	0.868	0.735	0.442	0.411	0.812	0.811	0.461	0.359	0.318
NCI-H2170	0.618	0.607	0.572	0.517	0.259	0.236	0.272	0.257	0.262	0.279	0.484	0.89	0.772	0.5	0.758	0.625	0.687	0.455	0.436	0.553
NCI-H1734	0.904	0.727	0.786	0.829	0.529	0.991	1.07	1	1.14	0.758	0.869	0.196	0.175	0.18	0.213	0.517	0.572	0.385	0.317	0.255
Calu-6	0.84	0.981	0.799	0.788	0.607	1.09	1.23	1.09	1.02	0.923										
EBC-1	0.421	0.362	0.525	0.504	0.281	0.218	0.228	0.181	0.243	0.244										
NCI-H596	0.942	1.04	1.09	1.13	0.712	1.09	1.02	1.14	1.21	1.04	0.933	1.21	0.838	0.821	1.02	0.663	0.621	0.681	0.506	0.579
A-427	1.03	0.983	0.962	1.06	0.914	1.07	1.1	1.05	1.04	1.01	0.803	0.784	0.866	0.656	0.64	0.745	0.743	0.621	0.721	0.673
NCI-H3122	0.975	0.962	1.05	1	0.987	1.03	0.934	0.974	1.07	0.957	0.0793	0.117	0.102	0.0975	0.0943	0.684	0.837	0.735	0.291	0.928
NCI-H1437	1.1	1.16	1.06	1.12	1.06	0.892	0.915	0.729	0.905	0.683	1.01	1.17	1.12	0.832	0.553	0.369	0.391	0.3	0.459	0.152
SK-MES-1	1.32	1.3	1.24	1.39	1.09	0.594	0.483	0.469	0.424	0.42	0.771	0.618	0.487	0.199	0.151	0.458	0.396	0.325	0.141	0.128
HCC-366	1.09	1.05	0.87	0.999	0.891	1.05	1.09	1.13	1.08	0.955							0.757	0.614	0.238	0.212
NCI-H2347	0.802	0.789	0.859	0.936	0.754	1.05	0.951	0.924	0.945	0.941	0.385	0.547	0.527	0.415	0.439	0.271	0.322	0.327	0.283	0.307
IA-LM	0.812		0.827	0.793	0.725	0.92	0.841		0.981	0.58										
HARA	1.2	1.12	1.16	1.1	1.02	0.798	0.643	0.721	0.862	0.735	0.644	1.1	0.696	0.641	0.325	0.26	0.344	0.296	0.261	0.23
SW 1573	0.84	0.918	0.832	0.97	0.683	1.18	1.01	1.08	1.11	0.858	0.22	0.206	0.178	0.0908	0.0847	0.544	0.452	0.174	0.106	0.0634

Cell Line	relative viability ([1]; first compound 0.02 µM)	relative viability ([1]; first compound 0.06325 µM)	relative viability ([1]; first compound 0.2 µM)	relative viability ([1]; first compound 0.6325 µM)	relative viability ([1]; first compound 2 µM)	relative viability ([2]; first compound 0.02 µM)	relative viability ([2]; first compound 0.06325 µM)	relative viability ([2]; first compound 0.2 µM)	relative viability ([2]; first compound 0.6325 µM)	relative viability ([2]; first compound 2 µM)	relative viability ([3]; first compound 0.001 µM)	relative viability ([3]; first compound 0.003162 µM)	relative viability ([3]; first compound 0.01 µM)	relative viability ([3]; first compound 0.03162 µM)	relative viability ([3]; first compound 0.1 µM)	relative viability ([4]; first compound 0.001 µM)	relative viability ([4]; first compound 0.003162 µM)	relative viability ([4]; first compound 0.01 µM)	relative viability ([4]; first compound 0.03162 µM)	relative viability ([4]; first compound 0.1 µM)
NCI-H1792	0.663	0.637	0.646	0.596	0.696	0.904	0.951	0.949	0.902	0.95		0.467	0.43	0.527	0.328		0.901	0.741	0.769	0.706
HCC-827	1	0.998	1.06	1.08	1.02	0.2	0.2	0.206	0.226	0.217	0.555	0.379	0.602	0.573	0.566	0.3	0.335	0.29	0.304	0.365
LC-2-ad	0.471	0.521	0.466	0.468	0.26	1.02	0.97	0.951	0.898	0.979	0.889	0.696	0.642	0.421	0.295	0.691	0.602	0.489	0.209	0.161
NCI-H520	1.29	1.11	1.24	1.1	1.04	0.9	1.05	0.901	0.959	0.729	0.249	0.242	0.266	0.18	0.217	0.234	0.218	0.202	0.151	0.183
LCLC-103H											0.941	1.06	0.949	0.931	0.864	0.507	0.6	0.446	0.381	0.552
NCI-H1299	1.05	1.06	1.05	1.07	1.05	0.945	0.98	0.97	0.963	0.953										
NCI-H1703	1.47	0.859	0.954	1.08	0.475	1.55	1.2	0.978	1.02	0.891										
NCI-H661						0.575	0.534	0.415	0.541	0.371	0.915	0.909	0.858	0.574	0.378	0.829	0.846	0.786	0.412	0.316
NCI-H441	0.84	0.515	0.66	0.82	0.262							0.312	0.358	0.321	0.293		0.585	0.332	0.166	0.213
ChaGo-K-1	1.18	0.822	0.946	0.666	0.983						0.614	0.592	0.651	0.52	0.54	0.633	0.62	0.56	0.479	0.543
NCI-H2342											0.816	0.739	0.585	0.507	0.787	0.308	0.317	0.323	0.298	0.326
SW 900											0.176	0.152	0.162	0.167	0.175	0.544	0.66	0.461	0.36	0.406
NCI-H1563						0.982	0.899	0.974	1.19	0.809	0.486	0.549	0.536	0.528	0.491	0.481	0.505	0.45	0.462	0.483
NCI-H522												1.21	1.12	0.885	1.15	0.724	1.04	0.873	0.776	1
HCC-44	0.935	0.903	1.01	1.13	0.816	1.02	1.02	1.02	1.06	1.21	0.879	0.838	0.658	0.526	0.273					
A549	1.24	1.14	1.33	1.22	0.916	1.09	1.15	1.05	0.953	0.902										
NCI-H358						0.435	0.378	0.477	0.378	0.288	0.213	0.471	0.291	0.392	0.189	0.175	0.161	0.159	0.0904	0.0827
NCI-H650						1.16	0.948	0.783	0.884	0.801	0.694	0.75	0.78	0.565	0.627	0.432	0.473	0.503	0.461	0.355
ABC-1						1.34	1.03	1.23	1.05	0.98	0.484	0.418	0.347	0.339	0.213	0.612	0.56	0.511	0.33	0.224
